According to patent publication US11912671B1, “Ethyl 3-(5-(3-fluorophenyl)-4-phenyl-4H-1,2,4- triazol-3-ylthio)propanoate as an antimicrobial compound” (KING FAISAL UNIVERSITY, priority 2023, dated 2024):

Tests used:
Type in all cases: cell-based
Pseudomonas aeruginosa = experiment: agar plate disc-diffusion, antibacterial inhibition zone; settings: nutrient agar, 37° C., 48 hours
Experimental: (§1) The agar plate disc-diffusion method was applied. […] The discs were then placed onto the surface of agar plates (nutrient agar for bacteria and Sabouraud's dextrose agar for fungi) seeded with the test organism. Each plate contained 15 mL of the agar medium, previously seeded with 0.2 mL of the broth culture of each organism pregrown for 18 hours. The plates were incubated at 37° C. for 48 hours, and 72 hours for fungi. The inhibition zones were measured in mm. Discs impregnated with DMSO were used as a control, and its inhibition zone was subtracted from the tested compound actual inhibition zone.

Bacillus cereus = experiment: as above; settings: nutrient agar, 37° C., 48 hours
Experimental: as §1

Staphylococcus aureus = experiment: as above; settings: nutrient agar, 37° C., 48 hours
Experimental: as §1

Escherichia coli = experiment: as above; settings: nutrient agar, 37° C., 48 hours
Experimental: as §1

Aspergillus flavus = experiment: agar plate disc-diffusion, antifungal inhibition zone; settings: Sabouraud's dextrose agar, 72 hours
Experimental: as §1

[1] = system: Chrysosporium keratinophilum; experiment: as above; settings: Sabouraud's dextrose agar, 72 hours
Experimental: as §1

[2] = A = concentration of comp. = 10,000 μL
[3] = B = concentration of comp. = 30,000 μL
[4] = C = concentration of comp. = 50,000 μL

## CCOC(=O)CCSc1nnc(-c2cccc(F)c2)n1-c1ccccc1 [III, ethyl 3-(5-(3-fluorophenyl)-4-phenyl-4H-1,2,4-triazol-3-ylthio)propanoate]
Pseudomonas aeruginosa; [2]
  inhibition zone, Pseudomonas aeruginosa, A: 26 mm
Pseudomonas aeruginosa; [3]
  inhibition zone, Pseudomonas aeruginosa, B: 29 mm
Pseudomonas aeruginosa; [4]
  inhibition zone, Pseudomonas aeruginosa, C: 46 mm
Bacillus cereus; [2]
  inhibition zone, Bacillus Cereus, A: 25 mm
Bacillus cereus; [3]
  inhibition zone, Bacillus Cereus, B: 28 mm
Bacillus cereus; [4]
  inhibition zone, Bacillus Cereus, C: 38 mm
Staphylococcus aureus; [2]
  inhibition zone, Staphylococcus aureus, A: 17 mm
Staphylococcus aureus; [3]
  inhibition zone, Staphylococcus aureus, B: 21 mm
Staphylococcus aureus; [4]
  inhibition zone, Staphylococcus aureus, C: 30 mm
Escherichia coli; [2]
  inhibition zone, Escherichia coli, A: 27 mm
Escherichia coli; [3]
  inhibition zone, Escherichia coli, B: 36 mm
Escherichia coli; [4]
  inhibition zone, Escherichia coli, C: 53 mm
Aspergillus flavus; [2]
  inhibition zone, Aspergillus flavus, A: 25 mm
Aspergillus flavus; [3]
  inhibition zone, Aspergillus flavus, B: 28 mm
Aspergillus flavus; [4]
  inhibition zone, Aspergillus flavus, C: 34 mm
[1]; [2]
  inhibition zone, Chrysosporium keratinophilum, A: 26 mm
[1]; [3]
  inhibition zone, Chrysosporium keratinophilum, B: 28 mm
[1]; [4]
  inhibition zone, Chrysosporium keratinophilum, C: 46 mm
